Source: patent US20120309699A1, “COMPOUNDS HAVING ANTI-INFLAMMATORY ACTIVITY” (Consejo Superior de Investigaciones Cientificas (CSIC), priority 2009, published 2012)
Entries after “also recorded” stand apart in the source; their conditions may differ.

Columns and labels:
C57BL/6 mice = experiment: DSS (sodium dextran sulfate) model for intestinal inflammation: colon length, weight, DAI, appearance, colonic architecture; type: in vivo; conditions: for Conservation of colon length (shortening of the colon): 1% DSS for 8 days, diet supplemented with 2.3 mg/day/kg (HED 10 mg); for DAI (Disease Activity Index): 8 days with DSS and 6 days recovery; for DAI (Disease Activity Index) / General appearance of the mice / Weight change / Attenuation of damage in colonic mucosa (colonic architecture): HED 10 mg; for Rectal hemorrhage / General appearance of the mice: after 1% DSS for 8 days; for Weight change: after administration of DSS (day 21); for Attenuation of damage in colonic mucosa (colonic architecture): hematoxylin-eosin, during treatment with DSS
Description: (§1) A model for intestinal inflammation based on the administration of DSS (sodium dextran sulfate) to C57BL/6 mice was used. At the present time there is no consensus about which overall is the best model for experimental colitis. The DSS model has been widely used because it has clinical, morphological and analytical characteristics which up to a point are similar to those specific to patients with ulcerative colitis or Crohn's disease.
(§2) The in vivo inflammation test was carried out using duplicates separated by a number of months. In each test each group of animals (n=8) was fed a standard diet supplemented with 2.3 mg/day/kg (animal weight) of each of the compounds, depending upon the group. This dose assumes the ingestion of 0.05 mg/day (50 μg/day) per mouse (having a mean weight of 22 grams). This dose extrapolated to a human being is equivalent to 10 mg in an adult weighing 70 kg; using the formula HED (human equivalent dose)=animal dose in mg/kg×(animal weight kg/human weight in kg)^0.33.
(§3) In each test the mice were fed for 3 weeks during which 1% DSS was included in their drink. The DSS was maintained for 8 days (and the same food as from the start). Then the DSS was withdrawn and the animals were allowed to recover for another 6 days (again with the same food).
Groups included in the investigation: control (standard food), control-DSS, DSS-resveratrol (RES), DSS-piceid (PIC), DSS-resveratrol-diglucoside (DIGLUC), DSS-piceid-butyrate (BUT), DSS-piceid-octanoate (OCT).
• Monitoring of weight, food and drink ingestion. The mice in all groups were individually monitored, with weight, quantity of food ingested and water drunk each day being monitored throughout the experimental test. • Blood and water in feces. The water content of feces, as an indication of diarrhea, was evaluated using the difference in weight following evaporation in a stove. Blood was measured using reactive strips based on the guaiacol-peroxidase reaction (HealthCare Diagnosis Inc.). The samples were diluted 1:50 in saline solution and applied to the reactive strips. After 60 sec the color was compared with the template provided by the manufacturer. The reaction was measured using a scale from 0 (negative result) to 4 (most intense color change). • Length of colon. After sacrifice the colon was obtained from each mouse, extended and measured. Samples of the colonic mucosa for various tests mentioned below were obtained by scraping. • Myeloperoxidase activity in colonic mucosa. This was evaluated by spectrophotometry at 460 nm using O-dianisidine reagent and hydrogen peroxide. The change in absorbance at 460 nm was monitored over 10 minutes in a V-630 spectrophotometer (Jasco, Tokyo, Japan). MPO activity was expressed as mU of activity/mg of fresh tissue, comparing the increase in absorbance with a standard straight line obtained using leukocyte myeloperoxidase (Sigma). • Prostaglandins in colonic mucosa. Levels of PGE2 were measured in colonic mucosa homogenates using an immunoenzyme method using a Cayman Chem. kit (USA). • “Antibody array”. The “antibody array” kit from RayBiotech (“RayBio Mouse Inflammation Antibody Array 1”) was used to determine cytokines in colonic tissue samples. The “RayBio Mouse inflammation antibody arrays” are a fast and accurate system for determining the expression profile of multiple cytokines (in this case 40) in a very sensitive way. The sensitivity is 100 times greater than that of the ELISA method. The measurement was made in duplicate following the manufacturer's instructions. Membranes were blocked with blocking buffer and then incubated with 300 μg of protein for 2 hours. Finally the membranes were incubated with a cocktail of antibodies conjugated with biotin and then radish peroxidase marked with streptavidin. The signal was detected by chemoluminescence. Images were captured using a CCD camera fitted to a Biorad Chemidoc XRS imaging station. Signal intensities (densitometry) were analyzed using ScanAlyze software. […]

Myeloperoxidase (MPO) = experiment: Myeloperoxidase activity in colonic mucosa (DSS model); type: in vivo, mice; conditions: after DSS; HED 10 mg
Description: as §1
(§4) The in vivo inflammation test was carried out using duplicates separated by a number of months. In each test each group of animals (n=8) was fed a standard diet supplemented with 2.3 mg/day/kg (animal weight) of each of the compounds, depending upon the group. […]
(§5) • Monitoring of weight, food and drink ingestion. The mice in all groups were individually monitored, with weight, quantity of food ingested and water drunk each day being monitored throughout the experimental test. • Blood and water in feces. The water content of feces, as an indication of diarrhea, was evaluated using the difference in weight following evaporation in a stove. Blood was measured using reactive strips based on the guaiacol-peroxidase reaction (HealthCare Diagnosis Inc.). […] The reaction was measured using a scale from 0 (negative result) to 4 (most intense color change). • Length of colon. After sacrifice the colon was obtained from each mouse, extended and measured. […]

haptoglobin = experiment: Systemic inflammation marker haptoglobin (DSS model); type: in vivo, mice; conditions: vs DSS group; HED 10 mg
Description: as §1, §2, §3
(§6) • Monitoring of weight, food and drink ingestion. The mice in all groups were individually monitored, with weight, quantity of food ingested and water drunk each day being monitored throughout the experimental test. • Blood and water in feces. The water content of feces, as an indication of diarrhea, was evaluated using the difference in weight following evaporation in a stove. Blood was measured using reactive strips based on the guaiacol-peroxidase reaction (HealthCare Diagnosis Inc.). […] The reaction was measured using a scale from 0 (negative result) to 4 (most intense color change). • Length of colon. After sacrifice the colon was obtained from each mouse, extended and measured. […] This was evaluated by spectrophotometry at 460 nm using O-dianisidine reagent and hydrogen peroxide. The change in absorbance at 460 nm was monitored over 10 minutes in a V-630 spectrophotometer (Jasco, Tokyo, Japan). MPO activity was expressed as mU of activity/mg of fresh tissue, comparing the increase in absorbance with a standard straight line obtained using leukocyte myeloperoxidase (Sigma). • Prostaglandins in colonic mucosa. Levels of PGE2 were measured in colonic mucosa homogenates using an immunoenzyme method using a Cayman Chem. kit (USA). • “Antibody array”. […] The signal was detected by chemoluminescence. […] Signal intensities (densitometry) were analyzed using ScanAlyze software. […] The changes in cytokine levels were expressed as mean±SD in arbitrary density units. […]

[1] = tested on: TNFR1 (Tumor necrosis factor receptor, CD120a); experiment: Antibody array in colonic mucosa: TNFR1 (DSS model); type: in vivo, mice; conditions: after 8 days DSS, without recovery period; HED 10 mg
Description: as §1, §4, §5

Prostaglandin E2 = experiment: Prostaglandins in colonic mucosa (DSS model); type: in vivo, mice; conditions: after DSS; HED 10 mg
Description: as §1, §4, §5

bifidobacteria = experiment: Microbiota counts in feces: bifidobacteria; type: in vivo, mice; conditions: after administration of DSS; HED 10 mg
Description: as §1, §2, §3, §6

lactobacilli = experiment: Microbiota counts in feces: lactobacilli; type: in vivo, mice; conditions: pre-treatment, maintained after DSS; HED 10 mg
Description: as §1, §4, §5

clostridia = experiment: Microbiota counts in feces: clostridia; type: in vivo, mice; conditions: pre-treatment, maintained after DSS; HED 10 mg
Description: as §1, §4, §5

Row | SMILES | Conservation of colon length (shortening of the colon) (C57BL/6 mice) | DAI (Disease Activity Index) (C57BL/6 mice) | Rectal hemorrhage (C57BL/6 mice) | General appearance of the mice (C57BL/6 mice) | Weight change (C57BL/6 mice) | Attenuation of damage in colonic mucosa (colonic architecture) (C57BL/6 mice) | Myeloperoxidase activity in colonic mucosa (Myeloperoxidase (MPO)) | Blood haptoglobin levels (haptoglobin) | Level of TNFR1 in colonic mucosa [1] | Production of prostaglandins (PGE2) in colonic mucosa (Prostaglandin E2) | Bifidobacteria count in feces (bifidobacteria) | Population of lactobacilli in feces (lactobacilli) | Population of clostridia in feces (clostridia)
1 | CCCCCCCC(=O)OCC1OC(Oc2cc(O)cc(/C=C/c3ccc(O)cc3)c2)C(O)C(O)C1O [OCT, trans-resveratrol-3-O-(6′-O-octanoyl)-β-D-glucopyranoside] | least shortening of the colon | much less than in the remainder | no trace of rectal hemorrhage | OCT (D)≈BUT (C)>>RES≈DIGLUC≈PIC (B)>>control-DSS (A); also recorded: better appearance than the control-DSS | maintained the same weight as the control group | best preserved colonic architecture | most obvious fall | most notable differences | values are similar to those for the control mice | best results | continued the upward trend | increases the population | increases the population
2 | CCCC(=O)OCC1OC(Oc2cc(O)cc(/C=C/c3ccc(O)cc3)c2)C(O)C(O)C1O [BUT, trans-resveratrol-3-O-(6′-O-butanoyl)-β-D-glucopyranoside] | least shortening of the colon | much less than in the remainder | no trace of rectal hemorrhage | OCT (D)≈BUT (C)>>RES≈DIGLUC≈PIC (B)>>control-DSS (A); also recorded: better appearance than the control-DSS | maintained the same weight as the control group | best preserved colonic architecture | most obvious fall | most notable differences | values are similar to those for the control mice | best results | continued the upward trend | increases the population | increases the population
